Data taken from the supplement of paper PMC10290057.
Structures can show the parent of a compound that is named as a salt.

How the values were obtained:
HCT116 [1] = assay: efficacy (fitted maximal change in viability relative to DMSO control); higher = less cytotoxic (negative = loss of viability); conditions: 48 h
HCT116 [2] = assay: AC50 cell viability (CellTiter-Glo); higher = less potent; conditions: 48 h
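For AC50 cell viability (CellTiter-Glo) in this document: HCT116 colorectal carcinoma cells screened at five concentrations per compound, luminescent viability scaled between DMSO wells and empty wells on each plate, curves fitted per compound.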
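For efficacy (fitted maximal change in viability relative to DMSO control) in this document: Luminescence-based viability readout, five doses per compound, normalized against on-plate DMSO and empty-well controls, followed by dose-response curve fitting for every drug.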

Row | SMILES | efficacy (HCT116 [1]) [%] | AC50 cell viability (HCT116 [2]) [µM]
1 | CCOc1cc2c(c(F)c1OCC)C(=N)N(CC(=O)c1cc(N3CCOCC3)c(OC)c(C(C)(C)C)c1)C2 [E5555] | -77 | 7.42
2 | COc1ccc([S+](=O)([O-])Nc2cccnc2Nc2ccc(O)cc2)cc1 [E-7010] | -63.2 | 0.59
3 | Cc1ccc(N[S+](=O)([O-])c2cccc(C#N)c2)c2[nH]cc(C#N)c12 [E-7820] | -53.2 | 0.417
4 | Cc1ccccc1C(=O)c1ccc(Nc2ccc(Br)cc2N)cc1Cl [EO-1428] | -75.8 | 20.9
5 | CS[C@H]1SC[C@@H]2C(=O)N(C)[C@H](C(C)C)C(=O)OC[C@H](NC(=O)c3cnc4ccccc4n3)C(=O)N[C@H](C)C(=O)N(C)[C@H]1C(=O)N(C)[C@H](C(C)C)C(=O)OC[C@H](NC(=O)c1cnc3ccccc3n1)C(=O)N[C@H](C)C(=O)N2C [Echinomycin] | -72.6 | 0.00372
6 | Clc1ccc(COC(Cn2ccnc2)c2ccc(Cl)cc2Cl)cc1 (stereo not drawn) [Econazole nitrate] | -83.5 | 20.9
7 | CC1(C)C(N(O)C(=O)Nc2ccc(Cl)cc2)N(c2ccc(Cl)cc2)C(=O)N1CC(=O)N/N=C/C=C/c1ccc([N+](=O)[O-])o1 (stereo not drawn) [Eeyarestatin I] | -89.8 | 8.33
8 | O=C1Nc2ccc(Cl)cc2[C@@](C#CC2CC2)(C(F)(F)F)O1 [Efavirenz] | -97.1 | 26.3
9 | CCNCCc1ccc(CN(CC)c2cc(OC)ccc2[C@@H]2CCc3cc(O)ccc3C2)cc1 [Elacestrant] | -96.5 | 7.42
10 | CSc1ccc(C(=O)/C=C/c2cc(C)c(OC(C)(C)C(=O)O)c(C)c2)cc1 [Elafibranor] | -75.5 | 30.3
11 | NC(=O)/C(=C/n1cnc(-c2cc(C(F)(F)F)cc(C(F)(F)F)c2)n1)c1cncnc1 [Eltanexor] | -78.9 | 0.295
12 | CC[C@H]1CN2CCc3cc(OC)c(OC)cc3[C@@H]2C[C@@H]1C[C@H]1NCCc2cc(OC)c(OC)cc21 [Emetine] | -73.6 | 0.0833
13 | C[C@H](NC(=O)C(=O)Nc1ccccc1C(C)(C)C)C(=O)N[C@@H](CC(=O)O)C(=O)COc1c(F)c(F)cc(F)c1F [Emricasan] | -89.4 | 13.2
14 | CC(C)(O)CNc1nc(Nc2ccnc(C(F)(F)F)c2)nc(-c2cccc(C(F)(F)F)n2)n1 [Enasidenib] | -71.3 | 18.6
15 | COC(=O)N[C@@H](C)CNc1nccc(-c2cn(C(C)C)nc2-c2cc(Cl)cc(N[S+](C)(=O)[O-])c2F)n1 [Encorafenib] | -52.7 | 4.17
16 | Nc1ccccc1NC(=O)c1ccc(CNC(=O)OCc2cccnc2)cc1 [Entinostat] | -83.4 | 2.95
17 | c1cn2cc(-c3ccc4cn[nH]c4c3)nc(Nc3ccc(N4CCOCC4)cc3)c2n1 [Entospletinib] | -34.9 | 5.9
18 | CN1CCN(c2ccc(C(=O)Nc3n[nH]c4ccc(Cc5cc(F)cc(F)c5)cc34)c(NC3CCOCC3)c2)CC1 [Entrectinib] | -101 | 5.25
19 | C[N]1C=C(C2=CC=CC=C12)\C3=C(\C(=O)NC3=O)C4=C[N](C5CCN(CC5)CC6=NC=CC=C6)C7=C4C=CC=C7 [Enzastaurin] | -56.4 | 14.8
20 | Nc1nc(N)c2nc(-c3cccc(Cl)c3)c(N)nc2n1 [Epiblastin A] | -85 | 1.66
21 | COc1cccc2c1C(=O)c1c(O)c3c(c(O)c1C2=O)C[C@@](O)(C(=O)CO)C[C@@H]3O[C@H]1C[C@H](N)[C@@H](O)[C@H](C)O1 [Epirubicin hydrochloride] | -77.8 | 0.372
22 | COC(=O)[C@H]1[C@@H](O)[C@@]2(O)c3c(OC)cc(O[C@@H]4O[C@@H]([C@@H](O)CO)CO[C@H]4OC)cc3O[C@@]2(c2ccc(OC)cc2)[C@@H]1c1ccccc1 [Episilvestrol] | -54.9 | 8.33
23 | C/C(=C\c1csc(C)n1)[C@@H]1C[C@@H]2O[C@]2(C)CCC[C@H](C)[C@H](O)[C@@H](C)C(=O)C(C)(C)[C@@H](O)CC(=O)O1 [Epothilone B] | -49.2 | 0.00662
24 | C/C1=C/C[C@@H](/C(C)=C/c2csc(C)n2)OC(=O)C[C@H](O)C(C)(C)C(=O)[C@H](C)[C@@H](O)[C@@H](C)CCC1 [Epothilone D] | -60.3 | 0.0166
25 | CCOC1=CC=CC=C1N\2C(=O)C3=C(C=CC=C3)\N=C2C(C)N4CCN(CC4)C(=O)COC5=CC=C(Cl)C=C5 (stereo not drawn) [Erastin] | -70.4 | 3.32
26 | COc1cc(OC)cc(N(CCNC(C)C)c2ccc3ncc(-c4cnn(C)c4)nc3c2)c1 [Erdafitinib] | -123 | 13.2
27 | C=C1C[C@@H]2CC[C@@]34C[C@H]5O[C@H]6[C@@H](O3)[C@H]3O[C@H](CC[C@@H]3O[C@H]6[C@H]5O4)CC(=O)C[C@@H]3[C@@H](OC)[C@@H](C[C@H](O)CN)O[C@H]3C[C@H]3O[C@@H](CC[C@@H]1O2)C[C@@H](C)C3=C [Eribulin mesylate] | -56.4 | 0.00241

Row | SMILES | efficacy (HCT116 [1]) [%] | AC50 cell viability (HCT116 [2]) [µM]
28 | C#Cc1cccc(Nc2ncnc3cc(OCCOC)c(OCCOC)cc23)c1 [Erlotinib] | -47.1 | 9.34
29 | Oc1ccc([C@@H]2Oc3ccc(O)cc3[C@@H]3CCC[C@@H]32)cc1 [Erteberel] | -73.8 | 7.42
30 | C[C@]12CC[C@@H]3c4ccc(O)cc4CC[C@H]3[C@@H]1CC[C@@H]2O [Estradiol] | -60.4 | 20.9
31 | CCOC(=O)[C@@]1(CCCCCCOc2ccc(Cl)cc2)CO1 [Etomoxir] | -42.1 | 18.6
32 | COc1cc([C@@H]2c3cc4c(cc3[C@@H](O[C@@H]3O[C@@H]5CO[C@@H](C)O[C@H]5[C@H](O)[C@H]3O)[C@H]3COC(=O)[C@H]23)OCO4)cc(OC)c1O [Etoposide] | -41.9 | 2.95
33 | C=CC(=O)N1CCC(CNc2ncnc(N)c2-c2ccc(Oc3ccccc3)cc2)CC1 [Evobrutinib] | -43.5 | 4.68
34 | CN1c2ccccc2C(=O)N2CCc3c([nH]c4ccccc34)C21 (stereo not drawn) [Evodiamine] | -64.2 | 1.66
35 | CC[C@@]1(O)C(=O)OC/C2=C1/C=C3\N(CC4=C5[C@@H](N)CCC6=C5C(=CC(=C6C)F)N=C34)C2=O [Exatecan] | -64 | 0.0417
36 | C[C@]12CC[C@H]3[C@@H](CC(=C)\C4=C\C(=O)\C=C/[C@]34C)[C@@H]1CCC2=O [Exemestane] | -65 | 18.6
37 | C=CC[C@@H]1/C=C(\C)C[C@H](C)C[C@H](OC)[C@H]2O[C@@](O)(C(=O)C(=O)N3CCCC[C@H]3C(=O)O[C@H](/C(C)=C/[C@@H]3CC[C@@H](O)[C@H](OC)C3)[C@H](C)[C@@H](O)CC1=O)[C@H](C)C[C@@H]2OC [FK-506] | -91.2 | 23.5
38 | CCN1C(=O)\C(=C/C2=C1N=C(NC3=CC=C(N4CCNCC4)C(=C3)F)N=C2)C5=CC=C(Cl)C=C5Cl [FRAX-486] | -32.6 | 2.63
39 | CCN1C(=O)\C(=C/C2=CN=C(NC3=CC=C(C=C3)N4CCN(C)CC4)N=C12)C5=C(Cl)C=C(C=C5)C6=CN=CS6 [FRAX-597] | -59 | 5.9
40 | CCOC(=N)c1nc2ccc3ncnc(Nc4cc(F)c(F)cc4Cl)c3c2s1 [FX-9847] | -41.6 | 4.68
41 | O=C1c2ccccc2-[n+]2ccc3c([nH]c4ccccc43)c21 [Fascaplysin] | -88.3 | 0.742
42 | O=[S+]([O-])(c1cccc2cnccc12)N1CCCNCC1 [Fasudil hydrochloride] | -49.1 | 18.6
43 | COC(=O)Nc1nc2cc(Sc3ccccc3)ccc2[nH]1 [Fenbendazole] | -79.7 | 1.05
44 | CC1=C(/C=C/C(C)=C/C=C/C(C)=C/C(=O)Nc2ccc(O)cc2)C(C)(C)CCC1 [Fenretinide] | -84.3 | 23.5
45 | Clc1ccc(C(Cn2ccnc2)OCc2ccc(Sc3ccccc3)cc2)c(Cl)c1 (stereo not drawn) [Fenticonazole nitrate] | -90.5 | 20.9
46 | CON(C)C(=O)N1/N=C(S[C@@]1(CCCN)C2=CC=CC=C2)/C3=CC(=CC=C3F)F [Filanesib] | -42.1 | 20.9
47 | O=C(Nc1nc2cccc(-c3ccc(CN4CC[S+](=O)([O-])CC4)cc3)n2n1)C1CC1 [Filgotinib] | -70.1 | 7.42
48 | CCCCCCCCc1ccc(CCC(N)(CO)CO)cc1 [Fingolimod hydrochloride] | -105 | 20.9
49 | CN1CC[C@H]([C@@H](O)C1)C2=C(O)C=C(O)C3=C2O\C(=C/C3=O)C4=CC=CC=C4Cl [Flavopiridol] | -63.7 | 0.186
50 | OC[C@H]1O[C@H](C[C@@H]1O)N2\C=C(F)/C(=O)NC2=O [Floxuridine] | -82.9 | 0.235
51 | COC(=O)Nc1nc2cc(C(=O)c3ccc(F)cc3)ccc2[nH]1 [Flubendazole] | -54.4 | 0.468
52 | Nc1nc(F)nc2c1ncn2[C@@H]1O[C@H](COP(=O)(O)O)[C@@H](O)[C@@H]1O [Fludarabine phosphate] | -58.2 | 7.42
53 | Cc1ncc(NC(=O)c2ccc(CN3CCN(C)CC3)c(C(F)(F)F)c2)cc1Nc1nccc(-c2cccnc2)n1 [Flumatinib mesylate] | -95.8 | 18.6
54 | NC\1=N\C(=O)N(\C=C1)[C@H]\2[C@H](O)[C@H](O)C(=C2F)\CO [Fluorocyclopentenylcytosine] | -66.3 | 0.525
